Source: PMC12865225 (Clinical and Translational Science, 2026)
Where “and” joins values, the source holds several entries; their conditions need not be identical. Identical values can stand only once. Marks after values point to notes of the source that are not given here.

Key:
OAT4 = target: T1, OAT4 (Homo sapiens, UniProt Q9NSA0); assay: OAT4 inhibition, methotrexate uptake into HEK293 cells; assay type: cell-based; conditions: for Calculated R-value OAT4: R = I max,u/IC50, cut-off ≥ 0.02 (MATE threshold)
T1 construct: expressed in transfected cells; host or cells: HEK293 (recombinant baculovirus-mediated transduction)
T1 sequence (Q9NSA0 1-550): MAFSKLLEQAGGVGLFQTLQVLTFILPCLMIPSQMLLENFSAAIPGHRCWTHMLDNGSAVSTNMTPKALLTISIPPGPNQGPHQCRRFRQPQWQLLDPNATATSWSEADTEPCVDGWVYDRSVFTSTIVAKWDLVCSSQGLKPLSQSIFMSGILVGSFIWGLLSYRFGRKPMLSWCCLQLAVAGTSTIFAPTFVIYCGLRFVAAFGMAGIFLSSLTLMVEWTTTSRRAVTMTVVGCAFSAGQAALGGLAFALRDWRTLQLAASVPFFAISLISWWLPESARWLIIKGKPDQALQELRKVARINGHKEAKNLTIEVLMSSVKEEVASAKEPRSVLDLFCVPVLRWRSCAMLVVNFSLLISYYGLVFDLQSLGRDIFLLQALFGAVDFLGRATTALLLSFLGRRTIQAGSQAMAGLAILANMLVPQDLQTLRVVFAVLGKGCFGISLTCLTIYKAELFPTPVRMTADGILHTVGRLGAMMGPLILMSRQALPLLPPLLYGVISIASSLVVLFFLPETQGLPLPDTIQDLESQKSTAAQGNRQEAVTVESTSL
Description: (§1) The human transporters OATP1B1, OATP1B3, OATP2B1, and OAT1‐OAT4 and a negative control protein (enhanced yellow fluorescent protein, eYFP) were transiently expressed in human embryonic kidney 293 (HEK293) cells by recombinant baculovirus‐mediated transduction. Baculoviruses carrying human genes for the transporters were prepared as reported previously. HEK293 cells were cultured in DMEM containing 10% fetal bovine serum at 37°C and 5% CO2 and passaged two to three times per week. For the transport studies, 0.05 × 10^6 cells for 48‐well plates (OATPs) or 0.06 × 10^6 cells for 24‐well plates (OATs) were seeded onto cell‐culture treated well plates coated with poly‐D‐lysine. After 1 day, cells were transduced to produce recombinant proteins by changing media to DMEM containing 30 μL (48‐well plates) or 60 μL (24‐well plates) of recombinant baculovirus and 3 mM (OATs) or 5 mM (OATPs) sodium butyrate in a total media volume of 500 μL. The cells were cultured for a further 2 days before the transport assays.
(§2) For the transport studies, media were removed and cells were washed once with warm transport uptake buffer (TP‐buffer—pH 7.4 HBSS with 25 mM HEPES and 4 mM sodium bicarbonate). Each experiment included triplicate (OATP) or duplicate (OAT) samples for every test condition. […]
In the OATP inhibition assays, inhibitors in warm TP‐buffer were directly applied to cells after media removal, followed by a 30‐min preincubation step in the presence of inhibitors. […] OAT1 and OAT3 cells were lysed with 200 μL of 1 M sodium hydroxide for 10 min, and 150 μL of these samples were transferred to a black well plate for fluorescein quantification. […]
For the inhibition data analysis, the average of measured concentrations in the control cells was subtracted from the average of measured concentrations in transporter‐expressing cells for each inhibitor concentration and then normalized to the vehicle sample that represents 100% transport activity. […]

OAT1 = test system: T2, OAT1; assay: Uptake transport assay in OAT1-expressing HEK293 cells; assay type: cell-based, human; conditions: 2 and 50 μM, 10 min
T2 construct: expressed in transfected cells; host or cells: HEK293 (recombinant baculovirus-mediated transduction)
Description: as §1, §2

MRP4 = test system: T3, MRP4; assay: Efflux transport assay in MRP4 HEK293 membrane vesicles; assay type: biochemical, human; conditions: 5 and 50 µM, 10 min
T3 construct: expressed in transfected cells; host or cells: HEK293 cells

P-gp = target: T4, P-gp (Homo sapiens, UniProt P08183); assay: Efflux transport assay in P-gp HEK293 membrane vesicles; assay type: biochemical; conditions: 5 and 50 µM, 10 min
T4 construct: made in house; host or cells: membrane vesicles from HEK293 cells expressing the transporter
Description: Membrane vesicles, 5 μL (7.5 μg of total protein), prepared as previously reported, were aliquoted to wells of a conical‐shaped 96‐well plate. The plate was incubated for 10 min at +37°C before the initiation of transport by adding 25 μL of TS‐buffer (10 mM Tris, 250 mM sucrose, pH adjusted to 7.4 with HEPES) containing magnesium chloride (10 mM final in the reaction), adenosine triphosphate (ATP) or adenosine monophosphate (AMP), 4 mM final in the reaction, and the transporter substrate and inhibitor. Each experiment included triplicate samples for both ATP and AMP samples. The concentrations of rosuvastatin and N‐methyl‐quinidine were 1 μM in the BCRP and P‐gp vesicle inhibition assays, respectively. […] The transport reactions were quenched by adding 200 μL of cold TS‐buffer to each well and transferring the samples to a 96‐multiwell 1.0 μm glass fiber filter plate (Merck Millipore, Darmstadt, Germany) kept under vacuum. Wells were further washed four times with cold TS‐buffer, after which the plate was dried under vacuum. The compounds were eluted from the plate by applying 100 μL of 75% methanol containing 0.1% formic acid to each well and incubating at 250 RPM for 30 min before centrifuging the samples to an analysis plate at 2800 g for 2 min. For the rosuvastatin samples, the elution solvent contained rosuvastin‐d6 as the internal standard. […]

T4 sequence (P08183 whole entry): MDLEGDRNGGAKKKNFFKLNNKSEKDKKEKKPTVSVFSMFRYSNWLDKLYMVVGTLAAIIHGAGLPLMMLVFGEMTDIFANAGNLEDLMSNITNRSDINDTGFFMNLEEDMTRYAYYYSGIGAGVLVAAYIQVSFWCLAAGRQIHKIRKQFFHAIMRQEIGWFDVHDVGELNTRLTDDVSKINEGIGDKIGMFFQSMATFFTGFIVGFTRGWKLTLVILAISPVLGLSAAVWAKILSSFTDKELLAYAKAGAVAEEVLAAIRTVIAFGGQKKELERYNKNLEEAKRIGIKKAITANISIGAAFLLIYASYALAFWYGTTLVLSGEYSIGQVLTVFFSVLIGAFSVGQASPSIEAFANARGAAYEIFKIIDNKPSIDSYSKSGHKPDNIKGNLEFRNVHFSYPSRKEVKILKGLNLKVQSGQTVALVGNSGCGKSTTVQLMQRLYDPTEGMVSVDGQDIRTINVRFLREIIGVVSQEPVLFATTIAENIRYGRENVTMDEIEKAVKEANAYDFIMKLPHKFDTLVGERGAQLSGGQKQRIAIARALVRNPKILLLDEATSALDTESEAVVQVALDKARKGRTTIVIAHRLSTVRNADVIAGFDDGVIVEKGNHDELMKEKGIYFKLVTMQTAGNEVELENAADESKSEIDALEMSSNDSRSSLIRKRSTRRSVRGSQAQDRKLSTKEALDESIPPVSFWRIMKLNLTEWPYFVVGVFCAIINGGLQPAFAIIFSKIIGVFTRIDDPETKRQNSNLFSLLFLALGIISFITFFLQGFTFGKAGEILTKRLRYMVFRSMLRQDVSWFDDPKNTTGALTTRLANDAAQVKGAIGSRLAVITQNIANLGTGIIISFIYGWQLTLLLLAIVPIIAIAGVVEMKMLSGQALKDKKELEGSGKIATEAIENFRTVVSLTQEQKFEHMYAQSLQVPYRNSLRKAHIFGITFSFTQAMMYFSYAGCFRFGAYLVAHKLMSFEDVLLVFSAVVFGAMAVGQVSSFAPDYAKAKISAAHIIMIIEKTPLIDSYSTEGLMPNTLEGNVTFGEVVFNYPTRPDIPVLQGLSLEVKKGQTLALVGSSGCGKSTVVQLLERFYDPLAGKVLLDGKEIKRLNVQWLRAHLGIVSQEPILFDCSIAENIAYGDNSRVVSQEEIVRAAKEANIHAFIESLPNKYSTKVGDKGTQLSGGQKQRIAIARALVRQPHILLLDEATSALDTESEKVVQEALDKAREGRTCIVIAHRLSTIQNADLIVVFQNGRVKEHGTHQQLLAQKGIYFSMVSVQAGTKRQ

| Calculated R-value OAT4 (OAT4) | transport by OAT1 (OAT1) | transport by MRP4 (MRP4) | transport by P-gp (P-gp) | IC50 (OAT4; IC50 (95% CI), μM OAT4, 34 nM methotrexate, 10 min, no preincubation) | Structure (SMILES) |
| --- | --- | --- | --- | --- | --- |
| 0.08 ^d | transported | did not transport | did not transport |  | Cc1onc(-c2c(F)cccc2Cl)c1C(=O)N[C@@H]1C(=O)N2[C@@H]1SC(C)(C)[C@@H]2C(=O)O [Flucloxacillin] |
| 0.19 ^d | transported | did not transport | did not transport | 7.2 µM and 7.23 µM | Cc1onc(-c2c(Cl)cccc2Cl)c1C(=O)N[C@@H]1C(=O)N2[C@@H]1SC(C)(C)[C@@H]2C(=O)O [Dicloxacillin] |
